Laboratory results from US8383094B2, “Hepatitis C virus inhibitors” (Bristol-Myers Squibb Company, priority 2008, dated 2013).
Where two headings read alike, the source gives them in different places.

System: HCV 1b genotype
Assay: HCV Replicon assay (HCV-neo replicon cells, wild-type)
Assay type: cell-based
Settings: HCV 1b genotype replicon, read-out: 1b EC50 (in μM or range)
[1] = Hepatitis C virus, range class A-D

SMILES	EC50 [1]	further results
CCOc1cccc2c(C(=O)N3CCC[C@H]3C(=O)Nc3ccc(C#Cc4ccc(NC(=O)[C@@H]5CCCN5C(=O)c5nc(Cl)cc6c(OCC)cccc56)cc4)cc3)nc(Cl)cc12 [Example D34, (2S,2′S)-N,N′-(1,2-ethynediyldi-4,1-phenylene)bis(1-((3-chloro-5-ethoxy-1-isoquinolinyl)carbonyl)-2-pyrrolidinecarboxamide)]	0.00457 to 0.099 µM	
O=C(Nc1ccc(C#Cc2ccc(NC(=O)[C@@H]3CCCN3C(=O)[C@H]3CCCO3)cc2)cc1)[C@@H]1CCCN1C(=O)[C@H]1CCCO1 [Example D26, (2S,2′S)-N,N′-(1,2-ethynediyldi-4,1-phenylene)bis(1-((2R)-tetrahydro-2-furanylcarbonyl)-2-pyrrolidinecarboxamide)]	0.00457 to 0.099 µM	
O=C(Nc1ccc(C#Cc2ccc(NC(=O)[C@@H]3CCCN3C(=O)C(c3ccccc3)N3CC[C@@H](O)C3)cc2)cc1)[C@@H]1CCCN1C(=O)C(c1ccccc1)N1CC[C@@H](O)C1 (stereo partly drawn) [VN52, (2S,2′S)-N,N′-(1,2-ethynediyldi-4,1-phenylene)bis(1-(((3R)-3-hydroxy-1-pyrrolidinyl)(phenyl)acetyl)-2-pyrrolidinecarboxamide)]	< 0.00457 µM	
CN(C)C(C)(C(=O)N1CCC[C@H]1C(=O)Nc1ccc(C#Cc2ccc(NC(=O)[C@@H]3CCCN3C(=O)C(C)(c3ccccc3)N(C)C)cc2)cc1)c1ccccc1 (stereo partly drawn) [VN38, (2S,2′S)-N,N′-(1,2-ethynediyldi-4,1-phenylene)bis(1-(2-(dimethylamino)-2-phenylpropanoyl)-2-pyrrolidinecarboxamide)]		EC50 (range class A-D): < 0.00457 µM
O=C(Nc1ccc(C#Cc2ccc(NC(=O)[C@@H]3CCCN3C(=O)[C@@H](c3ccccc3)N3CCCC3)cc2)cc1)[C@@H]1CCCN1C(=O)[C@@H](c1ccccc1)N1CCCC1 [VN12, (2S,2′S)-N,N′-(1,2-ethynediyldi-4,1-phenylene)bis(1-((2R)-2-phenyl-2-(1-pyrrolidinyl)acetyl)-2-pyrrolidinecarboxamide)]	< 0.00457 µM	
O=C(Nc1ccc(C#Cc2ccc(NC(=O)[C@@H]3CCCN3C(=O)C(c3ccccc3)N3CC[C@@H](O)C3)cc2)cc1)[C@@H]1CCCN1C(=O)C(c1ccccc1)N1CC[C@@H](O)C1 (stereo partly drawn) [VN53, (2S,2′S)-N,N′-(1,2-ethynediyldi-4,1-phenylene)bis(1-(((3R)-3-hydroxy-1-pyrrolidinyl)(phenyl)acetyl)-2-pyrrolidinecarboxamide)]		EC50 (range class A-D): 0.00457 to 0.099 µM
CC(=O)N(C)C(C(=O)N1CCC[C@H]1C(=O)Nc1ccc(C#Cc2ccc(NC(=O)[C@@H]3CCCN3C(=O)C(c3ccccc3)N(C)C(C)=O)cc2)cc1)c1ccccc1 (stereo partly drawn) [VN46, (2S,2′S)-N,N′-(1,2-ethynediyldi-4,1-phenylene)bis(1-((acetyl(methyl)amino)(phenyl)acetyl)-2-pyrrolidinecarboxamide)]	0.1 to 0.999 µM	
CN1C[C@@H]2C[C@H]1CN2C(C(=O)N1CCC[C@H]1C(=O)Nc1ccc(C#Cc2ccc(NC(=O)[C@@H]3CCCN3C(=O)C(c3ccccc3)N3C[C@@H]4C[C@H]3CN4C)cc2)cc1)c1ccccc1 (stereo partly drawn) [VN19, (2S,2′S)-N,N′-(1,2-ethynediyldi-4,1-phenylene)bis(1-(((1S,4S)-5-methyl-2,5-diazabicyclo[2.2.1]hept-2-yl)(phenyl)acetyl)-2-pyrrolidinecarboxamide)]		EC50: 0.0052 µM
COc1cccc2c(C(=O)N3CCC[C@H]3C(=O)Nc3ccc(C#Cc4ccc(NC(=O)[C@@H]5CCCN5C(=O)CC5CC5)cc4)cc3)nc(Cl)cc12 [Example D47, (2S)-1-((3-Chloro-5-methoxy-1-isoquinolinyl)carbonyl)-N-(4-((4-((((2S)-1-(cyclopropylacetyl)-2-pyrrolidinyl)carbonyl)amino)phenyl)ethynyl)phenyl)-2-pyrrolidinecarboxamide]	0.00457 to 0.099 µM	
O=C(Nc1ccc(C#Cc2ccc(NC(=O)C3CC3)cc2)cc1)C1CC1 [Example D3, N,N′-(4,4′-(Ethyne-1,2-diyl)bis(4,1-phenylene))dicyclopropanecarboxamide]	0.00457 to 0.099 µM	
